From patent publication EP4678639A1, “SALT OF BENZIMIDAZOLE DERIVATIVE” (JW Pharmaceutical Corporation, priority 2023, dated 2024)

Assays:
[1] = in vivo; cited from earlier work
[2] = Solubility comparative test (Korean Pharmacopoeia 'Solubility'); details: solubility of the acid addition salt itself, without conversion to freebase
[3] = Raw material stability test versus tegoprazan freebase (60 °C or 90 % RH); assay type: physicochemical

Solubility [2]: < 1000 µg/mL | change in appearance, 60 °C ([3]; 60 °C, 3 weeks): No change in appearance | change in appearance, 90 % RH ([3]; 90 % RH, 3 weeks): No change in appearance | change in appearance, Initial ([3]; initial): No change in appearance
Compound: Cc1nc2cc(C(=O)N(C)C)cc(O[C@H]3CCOc4cc(F)cc(F)c43)c2[nH]1 [Tegoprazan Freebase Crystalline Form A]
Tmax delayed when administered after a meal compared to before a meal [1]: up to 8 hours
